# Source: paper PMC5549559 (Cellular signalling, 2015)
# Assays:
# [1] = tested on: kappa opioid receptor (KOR); assay: GloSensor cAMP assay; format: cell-based
# [2] = tested on: rats; settings: ref [11], cited from earlier work; for cocaine self-administration (drug intake): intra-VTA infusion, rats
# [3] = tested on: p38; assay: p38 activation; format: cell-based, Chinese hamster; settings: western blot, ± SD, mean of 3 separate experiments (Figure 5D)
# [4] = tested on: kappa opioid receptor (KOR); assay: PathHunter β-arrestin recruitment assay in Drx-KOR cells; format: cell-based; settings: dynorphin, various concentrations, 90 min at 37°C; Drx-KOR cells (Figure 5A)
compound,measurement,setting,value
O=S(=O)(NCCNC/C=C/c1ccc(Br)cc1)c1cccc2cnccc12 [H89],effect of PKA inhibitor on OX1R attenuation of KOR Gαi signaling,"[1]; PKI or H89, 2 h, CHO-KOR + HA-OX1R, 500 nM orexin, 1 μM dynorphin (Figure 2B)",did not affect OX1R attenuation of KOR Gαi signaling
Cc1nc2ccc(NC(=O)Nc3ccnc4cccnc34)cc2o1 [SB-334867],cocaine self-administration (drug intake),[2],reduces cocaine self-administration in rats
Oc1ccc2c3c1O[C@H]1c4[nH]c5c(c4C[C@@]4(O)[C@@H](C2)N(CC2CC2)CC[C@]314)C[C@@]1(O)[C@H]2Cc3ccc(O)c4c3[C@@]1(CCN2CC1CC1)[C@H]5O4 [norBNI],cocaine self-administration (drug intake),[2],has no effect on drug intake
same,effect on ability of SB-334867 to reduce drug intake,"[2]; norBNI with SB-334867, rats",blocks the ability of SB-334867 to reduce drug intake
"Dynorphin A (1-17) (YGGFLRRIRPKLKWDNQ; Dynorphin A(1-17); UniProt P01213 207-223, looked up)",KOR response to dynorphin (cAMP) on transfection and activation of 5HT2aR,"[1]; 1 μM dynorphin, CHO-KOR + 5HT2aR, activated (Figure 1A)",does not affect the KOR response to dynorphin
same,increase in phospho-p38/total p38,"[3]; 1 μM dynorphin, 15 min, CHO-KOR cells, relative to untreated",1.76 ± 0.12 fold
same,increase in phospho-p38/total p38,"[3]; CHO-KOR + HA-OX1R, 500 nM orexin 10 min prior to dynorphin, relative to untreated cells",2.82 ± 0.36 fold
same,β-arrestin recruitment to KOR (luminescence),[4],concentration-dependent increase in luminescence
